For one data set, the target named is T1, cPLA2 (Homo sapiens, UniProt P47712).
T1 sequence (P47712 1-749): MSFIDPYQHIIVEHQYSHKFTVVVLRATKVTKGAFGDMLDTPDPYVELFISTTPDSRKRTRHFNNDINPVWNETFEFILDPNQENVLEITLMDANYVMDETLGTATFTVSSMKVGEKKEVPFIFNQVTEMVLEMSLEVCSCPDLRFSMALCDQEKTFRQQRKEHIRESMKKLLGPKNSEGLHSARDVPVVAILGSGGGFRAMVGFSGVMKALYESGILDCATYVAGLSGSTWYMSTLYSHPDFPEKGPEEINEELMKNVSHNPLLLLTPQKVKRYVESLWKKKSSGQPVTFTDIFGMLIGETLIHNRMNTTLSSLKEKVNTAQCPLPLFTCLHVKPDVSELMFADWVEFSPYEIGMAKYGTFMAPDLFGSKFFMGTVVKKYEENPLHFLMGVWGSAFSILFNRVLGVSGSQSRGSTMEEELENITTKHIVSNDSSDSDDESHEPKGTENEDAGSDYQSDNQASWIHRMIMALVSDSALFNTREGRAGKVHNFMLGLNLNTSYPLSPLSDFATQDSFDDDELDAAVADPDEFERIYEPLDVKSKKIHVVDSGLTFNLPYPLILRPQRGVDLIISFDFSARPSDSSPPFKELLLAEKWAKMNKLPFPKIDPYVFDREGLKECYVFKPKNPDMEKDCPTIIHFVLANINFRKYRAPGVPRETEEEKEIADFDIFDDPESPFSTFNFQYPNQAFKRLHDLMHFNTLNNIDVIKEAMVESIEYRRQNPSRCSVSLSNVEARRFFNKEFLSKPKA
Put plainly: Coumarine assay (hydrolysis of 7-hydroxycoumarinyl 6-heptenoate). To be noted: 60 μM 7-hydroxycoumarinyl 6-heptenoate, pH 7.5; read-out: Coumarin IC50. Format: biochemical.

In another data set the test system is B6 mice. Put plainly: Experimental autoimmune encephalomyelitis (EAE), animal model of multiple sclerosis. Format: in vivo. As to conditions: orally, 100 mg/kg, twice/day. As for the experimental part:
Six groups of B6 mice were immunized with MOG/CFA and injected with pertussis toxin to induce experimental autoimmune encephalomyelitis (EAE), an animal model of Multiple sclerosis. […] Another three groups of mice were treated with vehicle, Compound A or Compound B starting on the day of EAE onset (day 15) (orally, 100 mg/kg, twice/day). […] The results are shown in FIG. 1, wherein mean clinical score is a mean of clinical evaluation of each animal for that particular day. Animals are scored as follows: • 0 no clinical signs of EAE (no paralysis) • 1—paralysis of tail • 2—paralysis of tail and partial hind leg paralysis • 3—paralysis of tail And complete hind leg paralysis • 4—paralysis of tail, complete hind leg paralysis and a partial front leg paralysis • 5—moribund animal (all four limbs paralyzed, lack of responsiveness, these mice were immediately euthanized).

Another data set concerns ApoE KO mice. Kind of data set: ApoE knockout mouse model of atherosclerosis. Format: in vivo. As to conditions: 3.3 mg/g in chow, 20 weeks.

Molecules are shown by their SMILES.

Broadly, the IC50 is the concentration at which inhibition is half-maximal. By melting point is commonly meant the temperature, or range, at which the solid turns liquid. Turning to `CC(C)(Cc1ccc(S(=O)(=O)CCc2c(CCNS(=O)(=O)Cc3ccc(Cl)c(Cl)c3)n(C(c3ccccc3)c3ccccc3)c3ccc(Cl)cc23)cc1)C(=O)O` [Example 298, 3-[4-({2-[1-benzhydryl-5-chloro-2-(2{[(3,4-dichlorobenzyl)sulfonyl]amino}ethyl)-1H-indol-3-yl]ethyl}sulfonyl)phenyl]-2,2-dimethylpropanoic acid], the melting point fell in the range of 207 to 208 °C. For the same compound, the half-inhibitory concentration (IC50) on cPLA2 is 190 nM.

Regarding `O=C(O)c1ccc(OCCc2c(CCNS(=O)(=O)Cc3ccc(Cl)c(Cl)c3)n(C(c3ccccc3)c3ccccc3)c3ccc(Cl)cc23)cc1` [Example 10, 4-{2-[1-Benzhydryl-5-chloro-2-(2-{[(3,4-dichlorobenzyl)sulfonyl]amino}-ethyl)-1H-indol-3-yl]ethoxy}benzoic acid], the “EAE clinical score: prevention of EAE” value with B6 mice (from the day of immunization) was “prevent EAE”. Further, in the data set with B6 mice (starting on the day of EAE onset (day 15)), the “EAE clinical score: clinical severity of EAE” value was “reduce clinical severity of EAE”.

In the case of `O=C(O)c1ccc(CCCc2c(CCNS(=O)(=O)Cc3ccc(Cl)c(Cl)c3)n(C(c3ccccc3)c3ccccc3)c3ccc(Cl)cc23)cc1` [Example 44], the “atherosclerotic plaque burden at the aortic sinus” value in the data set on ApoE KO mice came to 282697±146462 μm^2. Also, the “decrease of atherosclerotic plaque burden at the aortic sinus” value in the data set on ApoE KO mice (vs control animals, p<0.001) is 45.6%.

For the compound `O=C(O)c1ccc(OCCc2c(CCNS(=O)(=O)Cc3ccccc3Cl)n(C(c3ccccc3)c3ccccc3)c3ccc(Cl)cc23)cc1F` [Example 297, 4-{2-[1-benzhydryl-5-chloro-2-(2-{[(2-chlorobenzyl)sulfonyl]amino}ethyl)-1H-indol-3-yl]ethoxy}-2-fluorobenzoic acid], the melting point is 132 to 135 °C. Also, the IC50 on cPLA2 was 300 nM.

As for `CC1CCCN(CCS(=O)(=O)NCCc2c(CCOc3ccc(C(=O)O)cc3)c3cc(Cl)ccc3n2C(c2ccccc2)c2ccccc2)C1` (stereo not shown) [Example 246, 4-(2-{I-benzhydryl-5-chloro-2-[2-({[2-(3-methylpiperidin-1-yl)ethyl]sulfonyl}amino)ethyl]-1H-indol-3-yl}ethoxy)benzoic acid], the IC50 on cPLA2 worked out at 1200 nM.

`CC(C)(C)c1ccccc1S(=O)(=O)NCCc1c(CCOc2ccc(C(=O)O)cc2)c2cc(Cl)ccc2n1C(c1ccccc1)c1ccccc1` [Example 237, 4-{2-[1-benzhydryl-2-(2-{[(2-tert-butylphenyl)sulfonyl]amino}ethyl)-5-chloro-1H-indol-3-yl]ethoxy}benzoic acid]: the IC50 on cPLA2 came to 200 nM.

Turning to `O=C(O)c1ccc(OCCc2c(CCNS(=O)(=O)c3cccc4nonc34)n(C(c3ccccc3)c3ccccc3)c3ccc(Cl)cc23)cc1` [Example 182, 4-(2-{1-Benzhydryl-2-[2-(benzo[1,2,5]oxadiazole-4-sulfonylamino)-ethyl]-5-chloro-1H-indol-3-yl}-ethoxy)benzoic acid], at cPLA2, the concentration for half-maximal inhibition (IC50) is 600 nM.

On to `Cc1nc(S(=O)(=O)NCCc2c(CCOc3ccc(C(=O)O)cc3)c3cc(Cl)ccc3n2C(c2ccccc2)c2ccccc2)cn1C` [Example 258, 4-{2-[1-benzhydryl-5-chloro-2-(2-{[(1,2-dimethyl-1H-imidazol-4-yl)sulfonyl]amino}ethyl)-1H-indol-3-yl]ethoxy}benzoic acid], for which, at cPLA2, the IC50 was 800 nM.

As for `O=C(O)c1ccc(CCCc2c(CCNS(=O)(=O)c3cccc(-c4ccccc4)c3)n(C(c3ccccc3)c3ccccc3)c3ccc(Cl)cc23)cc1` [Example 206, 4-[3-(1-benzhydryl-2-{-2-[-(1,1′-biphenyl-3-ylsulfonyl)amino]ethyl}-5-chloro-1H-indol-3-yl)propyl]benzoic acid], the IC50 on cPLA2 was determined as 500 nM.

`O=C(O)c1ccc(OCCc2c(CCNS(=O)(=O)Cc3ccc(Cl)c(Cl)c3)n(C(c3ccccc3)c3ccccc3)c3ccc(Cl)cc23)cc1F` [Example 296, 4-{2-[1-benzhydryl-5-chloro-2-(2-{[(3,4-dichlorobenzyl)sulfonyl]amino}ethyl)-1H-indol-3-yl]ethoxy}-2-fluorobenzoic acid] came in with a melting point of 117 to 119 °C. Besides, at cPLA2, the concentration for half-maximal inhibition (IC50) is 320 nM.

With `Cc1c(Cl)cc(F)cc1S(=O)(=O)NCCc1c(CCCc2ccc(C(=O)O)cc2)c2cc(Cl)ccc2n1C(c1ccccc1)c1ccccc1` [Example 263, 4-{3-[1-benzhydryl-5-chloro-2-(2-{[(3-chloro-5-fluoro-2-methylphenyl)sulfonyl]amino}ethyl)-1H-indol-3-yl]propyl}benzoic acid], the half-maximal inhibitory concentration (IC50) on cPLA2 came out at 320 nM.

For the origin of these results see US7605156B2, “Methods for the use of inhibitors of cytosolic phospholipase A2” (Wyeth, priority 2001, dated 2009).
